Measurements taken from patent US20230201217A1 (priority 2019, published 2023).

Legend:
cynomolgus monkeys = assay: 14-day nasogastric gavage GLP toxicity study in cynomolgus monkeys; type: in vivo, cynomolgus monkey
Description: Assessments of neurobehavioral effects and general toxicity were based on mortality, functional observational battery (FOB) evaluations, clinical observations, body weight, and body temperature; ophthalmoscopic, electrocardiographic examinations; and anatomic and clinical pathology. The anatomical pathology evaluations included histopathology of a full list of tissues from all animals and a comprehensive evaluation of the central nervous system (including selected peripheral nerves) utilizing whole body perfusion and special stains. Bone marrow smears from all animals were evaluated microscopically. Complete differentials and myeloid-erythroid (ME) ratios were performed. Toxicokinetic assessment was conducted for the test article and metabolites.

Sprague Dawley rats = assay: Modified Irwin test, pilot dose finding study, female rats; type: in vivo, rat; conditions: single oral dose 30-800 mg/kg
Description: Under the conditions of this study, the no-observed-effect level (NOEL) and no-observed-adverse-effect level (NOAEL) were considered to be 90 mg/kg and 400 mg/kg, respectively.

[1] = Toxicokinetics, 14-day oral gavage study in CD-1 mice; type: in vivo, mouse
Description: The relative metabolite concentrations were determined from plasma samples obtained on the last day of dosing in the 25 mg/kg/day group of animals using a UPLC/MS/MS method. Major metabolites were identified as M2 and M4, followed by M8 and M9. The parent 18-MC exposure was less than 1% of the total drug related material. No significant sex differences were observed.
All test article-treated animals underwent up-titration of dosage levels prior to reaching the maximum daily dose, which was administered for 14 consecutive days. […] The dose volume was 10 mL/kg for all groups. Groups 1 and 4 each consisted of 25 animals/sex and Groups 2-3 each consisted of 20 animals for each sex. Following 14 days of dose administration, 15 mice/sex/toxicology group were euthanized; the remaining 5, (10 for the control and high dose group) mice/sex/toxicology group were euthanized following a 14-day nondosing (recovery) period. Following the final blood collection (study day 13), all toxicokinetic animals (from a satellite group of 18 animals/sex/dose level) were euthanized.

[2] = tested on: animal substance use models; conditions: i.p.; cited from earlier work
CYP2C9 = CYP2C9 (Homo sapiens, UniProt P11712); conditions: recombinant enzyme
Sequence of CYP2C9 (P11712 whole entry): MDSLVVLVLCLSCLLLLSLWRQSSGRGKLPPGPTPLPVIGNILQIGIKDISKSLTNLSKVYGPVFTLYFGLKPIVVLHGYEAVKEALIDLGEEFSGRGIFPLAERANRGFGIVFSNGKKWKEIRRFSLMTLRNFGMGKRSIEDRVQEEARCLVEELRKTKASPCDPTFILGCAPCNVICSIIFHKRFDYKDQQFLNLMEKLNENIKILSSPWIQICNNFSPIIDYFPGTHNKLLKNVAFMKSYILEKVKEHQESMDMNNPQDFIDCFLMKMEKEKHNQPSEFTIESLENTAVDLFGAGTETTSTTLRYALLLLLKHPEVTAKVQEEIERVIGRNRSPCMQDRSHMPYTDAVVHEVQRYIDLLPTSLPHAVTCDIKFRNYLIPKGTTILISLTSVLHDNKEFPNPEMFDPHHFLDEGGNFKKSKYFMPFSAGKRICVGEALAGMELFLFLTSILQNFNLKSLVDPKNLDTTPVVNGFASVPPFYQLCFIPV
Description: (§1) Control incubations were performed for each assay with appropriate positive inhibitory controls.

[3] = tested on: polychromatic erythrocytes in mouse bone marrow; assay: Mouse bone marrow in vivo micronucleus assay
Description: Treatment resulted and clinical signs of lethargy and piloerection at doses of 200-400 mg/kg and in mortality of male and female ICR mice at doses of 300 and 400 mg/kg. The highest non-lethal dose was 250 mg/kg.
These doses were based upon prior toxicology data indicating higher doses were associated with mortality in this species. […] A positive control group received a single oral dose of 60 mg/kg cyclophosphamide on Day 2, the day prior to the scheduled euthanasia. Each group consisted of 6 males. Males only were used as no significant differences in response related to gender were expected based upon prior toxicology and toxicokinetic data. All animals were euthanized on Day 3, the day following the final dose and discarded following bone marrow collection.
All animals were observed twice daily for mortality and moribundity. Bone marrow collection for micronucleus evaluation was performed for 5 of the 6 animals in each group at the scheduled euthanasia (Day 3). All animals were discarded without necropsy. Bone marrow smears were prepared, and the coded slides were counted for polychromatic, normochromatic, and micronucleated polychromatic erythrocytes following the final bone marrow sample collection on Day 3.

CYP2C19 = CYP2C19 (Homo sapiens, UniProt P33261); conditions: recombinant enzyme
Sequence of CYP2C19 (P33261 whole entry): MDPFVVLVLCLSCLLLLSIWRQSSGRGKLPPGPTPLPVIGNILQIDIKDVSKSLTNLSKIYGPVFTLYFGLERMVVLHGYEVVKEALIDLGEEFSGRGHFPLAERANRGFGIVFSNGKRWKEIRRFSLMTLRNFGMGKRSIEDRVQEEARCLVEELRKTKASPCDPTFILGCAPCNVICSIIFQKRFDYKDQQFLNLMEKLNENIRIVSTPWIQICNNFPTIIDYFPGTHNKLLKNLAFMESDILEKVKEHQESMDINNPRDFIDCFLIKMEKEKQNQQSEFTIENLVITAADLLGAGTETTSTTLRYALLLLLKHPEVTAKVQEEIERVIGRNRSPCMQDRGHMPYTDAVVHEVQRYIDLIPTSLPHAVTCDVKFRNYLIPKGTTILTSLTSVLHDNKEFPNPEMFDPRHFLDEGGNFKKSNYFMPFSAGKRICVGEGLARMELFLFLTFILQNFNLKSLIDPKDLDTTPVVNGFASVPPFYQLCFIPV
Description: as §1

[4] = 400/300 mg/kg/day F, 3 examined
[5] = 400/300 mg/kg/day M, 4 examined

Compound: COCCC1CC2CN3CCc4c([nH]c5ccccc45)C(C(=O)OC)(C2)C13.Cl (centres unmarked) [18-MC HCl, 18-Methoxycoronaridine hydrochloride]
- Bone marrow, femur: Depletion, mixed, mild; number with observation (cynomolgus monkeys; 400/300 mg/kg/day F): 0
- Bone marrow, femur: Depletion, mixed, minimal; number with observation (cynomolgus monkeys; 400/300 mg/kg/day F): 1
- Bone marrow, femur: Depletion, mixed, moderate; number with observation (cynomolgus monkeys; 400/300 mg/kg/day F): 0
- Bone marrow, rib: Depletion, mixed, mild; number with observation (cynomolgus monkeys; 400/300 mg/kg/day F): 1
- Bone marrow, rib: Depletion, mixed, minimal; number with observation (cynomolgus monkeys; 400/300 mg/kg/day F): 0
- Bone marrow, rib: Depletion, mixed, moderate; number with observation (cynomolgus monkeys; 400/300 mg/kg/day F): 0
- Bone marrow, rib: Depletion, mixed; number with observation (cynomolgus monkeys; 400/300 mg/kg/day F): 1
- Bone marrow, sternum: Depletion, mixed, mild; number with observation (cynomolgus monkeys; 400/300 mg/kg/day F): 1
- Bone marrow, sternum: Depletion, mixed, minimal; number with observation (cynomolgus monkeys; 400/300 mg/kg/day F): 0
- Bone marrow, sternum: Depletion, mixed, moderate; number with observation (cynomolgus monkeys; 400/300 mg/kg/day F): 0
- Bone marrow, sternum: Depletion, mixed; number with observation (cynomolgus monkeys; 400/300 mg/kg/day F): 1
- Liver: Hypertrophy, hepatocellular, panlobular, mild; number with observation (cynomolgus monkeys; 400/300 mg/kg/day F): 3
- Liver: Hypertrophy, hepatocellular, panlobular, minimal; number with observation (cynomolgus monkeys; 400/300 mg/kg/day F): 0
- Thymus: Depletion lymphoid, generalized, mild; number with observation (cynomolgus monkeys; 400/300 mg/kg/day F): 2
- Thymus: Depletion lymphoid, generalized, moderate; number with observation (cynomolgus monkeys; 400/300 mg/kg/day F): 1
- Thymus: Depletion lymphoid, generalized; number with observation (cynomolgus monkeys; 400/300 mg/kg/day F): 3
- Thymus: Depletion, lymphoid, cortex, mild; number with observation (cynomolgus monkeys; 400/300 mg/kg/day F): 0
- Thymus: Depletion, lymphoid, cortex, minimal; number with observation (cynomolgus monkeys; 400/300 mg/kg/day F): 0
- Thymus: Depletion, lymphoid, cortex, moderate; number with observation (cynomolgus monkeys; 400/300 mg/kg/day F): 0
- mean cumulative body gain (Days 1-14) (cynomolgus monkeys; 400/300 mg/kg/day F): -0.09 kg
- Bone marrow, femur: Depletion, mixed; number with observation (cynomolgus monkeys; [4]): 1
- Liver: Hypertrophy, hepatocellular, panlobular; number with observation (cynomolgus monkeys; [4]): 3
- Thymus: Depletion, lymphoid, cortex; number with observation (cynomolgus monkeys; [4]): 0
- Bone marrow, femur: Depletion, mixed, mild; number with observation (cynomolgus monkeys; 400/300 mg/kg/day M): 1
- Bone marrow, femur: Depletion, mixed, minimal; number with observation (cynomolgus monkeys; 400/300 mg/kg/day M): 0
- Bone marrow, femur: Depletion, mixed, moderate; number with observation (cynomolgus monkeys; 400/300 mg/kg/day M): 1
- Bone marrow, rib: Depletion, mixed, mild; number with observation (cynomolgus monkeys; 400/300 mg/kg/day M): 1
- Bone marrow, rib: Depletion, mixed, minimal; number with observation (cynomolgus monkeys; 400/300 mg/kg/day M): 0
- Bone marrow, rib: Depletion, mixed, moderate; number with observation (cynomolgus monkeys; 400/300 mg/kg/day M): 1
- Bone marrow, rib: Depletion, mixed; number with observation (cynomolgus monkeys; 400/300 mg/kg/day M): 2
- Bone marrow, sternum: Depletion, mixed, mild; number with observation (cynomolgus monkeys; 400/300 mg/kg/day M): 1
- Bone marrow, sternum: Depletion, mixed, minimal; number with observation (cynomolgus monkeys; 400/300 mg/kg/day M): 0
- Bone marrow, sternum: Depletion, mixed, moderate; number with observation (cynomolgus monkeys; 400/300 mg/kg/day M): 1
- Bone marrow, sternum: Depletion, mixed; number with observation (cynomolgus monkeys; 400/300 mg/kg/day M): 2
- Liver: Hypertrophy, hepatocellular, panlobular, mild; number with observation (cynomolgus monkeys; 400/300 mg/kg/day M): 3
- Liver: Hypertrophy, hepatocellular, panlobular, minimal; number with observation (cynomolgus monkeys; 400/300 mg/kg/day M): 0
- Thymus: Depletion lymphoid, generalized, mild; number with observation (cynomolgus monkeys; 400/300 mg/kg/day M): 1
- Thymus: Depletion lymphoid, generalized, moderate; number with observation (cynomolgus monkeys; 400/300 mg/kg/day M): 2
- Thymus: Depletion lymphoid, generalized; number with observation (cynomolgus monkeys; 400/300 mg/kg/day M): 3
- Thymus: Depletion, lymphoid, cortex, mild; number with observation (cynomolgus monkeys; 400/300 mg/kg/day M): 0
- Thymus: Depletion, lymphoid, cortex, minimal; number with observation (cynomolgus monkeys; 400/300 mg/kg/day M): 0
- Thymus: Depletion, lymphoid, cortex, moderate; number with observation (cynomolgus monkeys; 400/300 mg/kg/day M): 0
- mean cumulative body gain (Days 1-14) (cynomolgus monkeys; 400/300 mg/kg/day M): -0.23 kg
- Bone marrow, femur: Depletion, mixed; number with observation (cynomolgus monkeys; [5]): 2
- Liver: Hypertrophy, hepatocellular, panlobular; number with observation (cynomolgus monkeys; [5]): 3
- Thymus: Depletion, lymphoid, cortex; number with observation (cynomolgus monkeys; [5]): 0
- NOAEL (cynomolgus monkeys; 14 days): 50 mg/kg/day
- highest non-lethal dose (cynomolgus monkeys; cynomolgus monkey, in vivo): 300 mg/kg
- no-observed-adverse-effect level (NOAEL) (Sprague Dawley rats): 400 mg/kg
- no-observed-effect level (NOEL) (Sprague Dawley rats): 90 mg/kg
- AUC(0-24) ([1]; Day 0, Female, 25 mg/kg/day): 77.8 ng·h/mL
- Cmax ([1]; Day 0, Female, 25 mg/kg/day): 30.8 ng/mL
- Tmax ([1]; Day 0, Female, 25 mg/kg/day): 30 min
- AUC(0-24) ([1]; Day 0, Female, 50 mg/kg/day): 56.2 ng·h/mL
- Cmax ([1]; Day 0, Female, 50 mg/kg/day): 23.7 ng/mL
- Tmax ([1]; Day 0, Female, 50 mg/kg/day): 30 min
- AUC(0-24) ([1]; Day 0, Female, 100 mg/kg/day): 187 ng·h/mL
- Cmax ([1]; Day 0, Female, 100 mg/kg/day): 51.8 ng/mL
- Tmax ([1]; Day 0, Female, 100 mg/kg/day): 60 min
- AUC(0-24) ([1]; Day 0, Male, 25 mg/kg/day): 66.6 ng·h/mL
- Cmax ([1]; Day 0, Male, 25 mg/kg/day): 19.4 ng/mL
- Tmax ([1]; Day 0, Male, 25 mg/kg/day): 30 min
- AUC(0-24) ([1]; Day 0, Male, 50 mg/kg/day): 108 ng·h/mL
- Cmax ([1]; Day 0, Male, 50 mg/kg/day): 44.3 ng/mL
- Tmax ([1]; Day 0, Male, 50 mg/kg/day): 30 min
- AUC(0-24) ([1]; Day 0, Male, 100 mg/kg/day): 349 ng·h/mL
- Cmax ([1]; Day 0, Male, 100 mg/kg/day): 131 ng/mL
- Tmax ([1]; Day 0, Male, 100 mg/kg/day): 60 min
- AUC(0-24) ([1]; Day 13, Female, 25 mg/kg/day): 54.5 ng·h/mL
- Cmax ([1]; Day 13, Female, 25 mg/kg/day): 25.6 ng/mL
- Tmax ([1]; Day 13, Female, 25 mg/kg/day): 30 min
- AUC(0-24) ([1]; Day 13, Female, 50 mg/kg/day): 119 ng·h/mL
- Cmax ([1]; Day 13, Female, 50 mg/kg/day): 49.9 ng/mL
- Tmax ([1]; Day 13, Female, 50 mg/kg/day): 30 min
- AUC(0-24) ([1]; Day 13, Female, 100 mg/kg/day): 188 ng·h/mL
- Cmax ([1]; Day 13, Female, 100 mg/kg/day): 44.0 ng/mL
- T1/2 ([1]; Day 13, Female, 100 mg/kg/day): 147 min
- Tmax ([1]; Day 13, Female, 100 mg/kg/day): 30 min
- AUC(0-24) ([1]; Day 13, Male, 25 mg/kg/day): 50.5 ng·h/mL
- Cmax ([1]; Day 13, Male, 25 mg/kg/day): 23.6 ng/mL
- Tmax ([1]; Day 13, Male, 25 mg/kg/day): 30 min
- AUC(0-24) ([1]; Day 13, Male, 50 mg/kg/day): 164 ng·h/mL
- Cmax ([1]; Day 13, Male, 50 mg/kg/day): 92.9 ng/mL
- T1/2 ([1]; Day 13, Male, 50 mg/kg/day): 107 min
- Tmax ([1]; Day 13, Male, 50 mg/kg/day): 30 min
- AUC(0-24) ([1]; Day 13, Male, 100 mg/kg/day): 329 ng·h/mL
- Cmax ([1]; Day 13, Male, 100 mg/kg/day): 136 ng/mL
- T1/2 ([1]; Day 13, Male, 100 mg/kg/day): 116 min
- Tmax ([1]; Day 13, Male, 100 mg/kg/day): 30 min
- lowest dosage that significantly reduces drug self-administration [2]: ≥ 10 mg/kg
- IC50 (CYP2C9): < 1.5 µM
- lethality ([3]; GLP, 120 mg/kg/day group, within 3 hours of dosing): Lethality was observed in a single animal
- incidence of micro-nucleated polychromatic erythrocytes (MPCE) ([3]; non-GLP, 250 mg/kg and less): No significant increase
- highest non-lethal dose ([3]; non-GLP, single oral dose, suspension in PBS pH 7.4, ICR mice): 250 mg/kg
- IC50 (CYP2C19): < 1.5 µM
